From patent US20120263649A1, “DETECTION OF MYCOBACTERIA” (priority 2009, published 2012)

Experiments:
Ag85B = Ag85B (Mycobacterium tuberculosis, UniProt P9WQP1); format: biochemical; conditions: ratio of peak height of mono-hexanoyl ester of labelled/derivatised Tre to peak height of labelled/derivatised Tre; 500 μM di-hexanoyl ester, 500 μM substrate, 100 nM enzyme, 1 mM TEA pH 7.2, 37° C; compound 1 (Tre) = 100
Ag85C = Ag85C (Mycobacterium tuberculosis, UniProt P9WQN9); format: biochemical; conditions: ratio of peak height of mono-hexanoyl ester of labelled/derivatised Tre to peak height of labelled/derivatised Tre; 500 μM di-hexanoyl ester, 500 μM substrate, 100 nM enzyme, 1 mM TEA pH 7.2, 37° C; compound 1 (Tre) = 100
Sequence of Ag85C (P9WQN9 46-340): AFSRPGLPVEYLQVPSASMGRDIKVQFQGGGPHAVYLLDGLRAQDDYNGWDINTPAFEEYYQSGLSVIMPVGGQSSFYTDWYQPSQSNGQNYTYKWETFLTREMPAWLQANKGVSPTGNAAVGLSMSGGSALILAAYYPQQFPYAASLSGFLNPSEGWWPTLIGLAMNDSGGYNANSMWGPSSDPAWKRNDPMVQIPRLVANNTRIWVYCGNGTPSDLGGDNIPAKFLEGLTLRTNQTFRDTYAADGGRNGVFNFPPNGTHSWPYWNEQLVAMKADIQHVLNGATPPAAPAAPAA

Ag85A = Ag85A (Mycobacterium tuberculosis, UniProt P9WQP3); format: biochemical; conditions: ratio of peak height of mono-hexanoyl ester of labelled/derivatised Tre to peak height of labelled/derivatised Tre; 500 μM di-hexanoyl ester, 500 μM substrate, 100 nM enzyme, 1 mM TEA pH 7.2, 37° C; compound 1 (Tre) = 100
Sequence of Ag85A (P9WQP3 44-338): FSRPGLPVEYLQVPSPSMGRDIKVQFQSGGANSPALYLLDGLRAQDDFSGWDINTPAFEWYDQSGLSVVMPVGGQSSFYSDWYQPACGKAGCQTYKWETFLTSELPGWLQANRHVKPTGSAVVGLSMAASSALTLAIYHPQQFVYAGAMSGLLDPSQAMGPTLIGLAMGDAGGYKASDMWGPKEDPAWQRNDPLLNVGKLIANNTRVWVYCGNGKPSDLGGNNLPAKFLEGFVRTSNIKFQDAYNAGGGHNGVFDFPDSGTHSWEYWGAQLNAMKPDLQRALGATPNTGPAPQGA

[1] = system: J774 Macrophages infected with H37Rv Mtb; assay: FITC-Tre uptake into infected macrophages, confocal microscopy with anti-Mtb antibody; format: cell-based, murine; conditions: FIG. 7(j); antibody labelled with Alexa-594
Method: J774 Macrophages were grown to confluency on coverslips and then were infected with H37Rv Mtb (2-3 bacteria/macrophage). After 4 hours infection time, macrophages were washed to remove free bacteria and FITC-Tre was added in ethanol to desired concentrations (1 μM, 10 μM, 50 μM, 100 μM). Quantum dots (QDs) were treated in an analogous fashion and were added to a concentration of dots of (7 nm) with roughly 110 sugars/dot (1 μM effective sugar concentration) Uncoated QDs were utilized as a control. RFP expressing BCG was also treated in an identical fashion.
Cells were fixed at different timepoints utilizing the following procedure: Media was removed and cells were washed in PBS Buffer. Cells were then fixed in an aqueous solution of 5% formalin is phosphate buffered saline (PBS) for 15 minutes and then washed again using two 2-minute treatments with PBS (0.5 ml) for 2 min. […]
Images of stained cells were obtained by confocal microscopy (Leica SP2, Leica Microsystems, Exton, Pa.) using a 63× oil immersion objective NA 1.4. Multiple fields were sampled, and representative images were recorded. […] DAPI was first excited at 405 nm and emission spectrum was recorded (416 nm-482 nm) before the other fluorochromes were excited and emission spectrums recorded. Essential Sequential Z sections of stained cells were also recorded for generation of stacked images through cell. […]

Sequence of Ag85B (P9WQP1 41-325): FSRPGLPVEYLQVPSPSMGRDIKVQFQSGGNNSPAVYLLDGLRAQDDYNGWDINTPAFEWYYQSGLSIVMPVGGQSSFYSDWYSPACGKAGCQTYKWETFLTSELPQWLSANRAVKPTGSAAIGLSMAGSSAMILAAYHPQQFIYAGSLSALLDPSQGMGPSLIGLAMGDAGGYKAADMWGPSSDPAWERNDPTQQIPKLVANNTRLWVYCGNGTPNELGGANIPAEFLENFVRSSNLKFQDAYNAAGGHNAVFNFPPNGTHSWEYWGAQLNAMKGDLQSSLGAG

SMILES | Relative substrate response towards transesterification, Ag85B (Ag85B) | Relative substrate response towards transesterification, Ag85C (Ag85C) | Relative substrate response towards transesterification, Ag85A (Ag85A) | Colocalization of probe with anti-Mtb antibody signal in infected macrophages [1]
OC[C@H]1O[C@H](O[C@H]2O[C@H](CO)[C@@H](O)[C@H](O)[C@H]2O)[C@H](O)[C@@H](O)[C@@H]1O [Compound 1, trehalose, reference compound] | 100 | 100 | 100 | 
C[C@]1(O[C@H]2OC(CO)[C@@H](O)C(O)C2O)OC(CO)[C@@H](O)C(O)C1O (stereo partly drawn) [Compound 2, 1-Deoxy-α-D-gluco-hept-2-ulopyranosyl-(2→1)-α-D-glucopyranoside] | 13 | 111 | 32 | 
C[C@]1(O[C@H]2OC(CO)[C@@H](O)C(O)C2F)OC(CO)[C@@H](O)C(O)C1O (stereo partly drawn) [Compound 3, 1-Deoxy-α-D-gluco-hept-2-ulopyranosyl-(2→1)-2-deoxy-2-fluoro-α-D-glucopyranoside] | 1415 | 102 | 73 | 
C[C@]1(O[C@H]2OC(CO)[C@@H](O)C(O)C2O)OC(CO)[C@H](O)C(O)C1O (stereo partly drawn) [Compound 4, 1-Deoxy-α-D-galacto-hept-2-ulopyranosyl-(2→1)-α-D-glucopyranoside] | 7 | 57 | 12 | 
C[C@]1(O[C@H]2OC(CO)[C@@H](O)C(O)C2F)OC(CO)[C@H](O)C(O)C1O (stereo partly drawn) [Compound 5, 1-Deoxy-α-D-galacto-hept-2-ulopyranosyl-(2→1)-2-deoxy-2-fluoro-α-D-glucopyranoside] | 13 | 64 | 19 | 
C[C@]1(O[C@H]2OC(CO)[C@@H](O)C(F)C2O)OC(CO)[C@@H](O)C(O)C1O (stereo partly drawn) [Compound 6, 1-Deoxy-α-D-gluco-hept-2-ulopyranosyl-(2→1)-3-fluoro-3-deoxy-α-D-glucopyranoside] | 8 | 76 | 7 | 
C[C@]1(O[C@H]2OC(CO)[C@@H](O)C(O)C2N)OC(CO)[C@@H](O)C(O)C1O (stereo partly drawn) [Compound 7, 1-Deoxy-α-D-gluco-hept-2-ulopyranosyl-(2→1)-2-amino-2-deoxy-α-D-glucopyranoside] | 56 | 91 | 47 | 
C[C@]1(O[C@H]2OC(CO)[C@@H](O)C(O)C2NC(=S)Nc2ccc(-c3c4ccc(=O)cc-4oc4cc(O)ccc34)c(C(=O)O)c2)OC(CO)[C@@H](O)C(O)C1O (stereo partly drawn) [Compound 9, 1-Deoxy-α-D-gluco-hept-2-ulopyranosyl-(2→1)-2-N-fluorescein-2-deoxy-α-D-glucopyranoside] | 38 | 44 | 229 | colocalization of FITC-Tre and antibody
OCC1O[C@H](O[C@@H]2CC(O)[C@H](O)C(CO)O2)CC(O)[C@@H]1O (stereo partly drawn) [Compound 10, 2′-Deoxy-α-D-arabino-hexopyranosyl-(1→1)-2-deoxy-α-D-arabino-hexopyranoside] | 16 | 129 | 50 | 
OCC1O[C@H](O[C@@H]2CC(O)[C@@H](O)C(CO)O2)CC(O)[C@H]1O (stereo partly drawn) [Compound 11, 2′-Deoxy-α-D-lyxo-hexopyranosyl-(1→1)-2-deoxy-α-D-lyxo-hexopyranoside] | 4 | 1 | 1 | 
OCC1O[C@H](O[C@H]2OC(CO)[C@@H](O)C(O)C2I)C(I)C(O)[C@@H]1O (stereo partly drawn) [Compound 12, 2′-Deoxy-2′-iodo-α-D-mannopyranosyl-(1→1)-2-deoxy-2-iodo-α-D-mannopyranoside] | 54 | 166 | 148 | 
OCC1O[C@H](O[C@H]2OC(CO)[C@@H](O)C(O)C2F)C(F)C(O)[C@@H]1O (stereo partly drawn) [Compound 13, 2′-Deoxy-2′-fluoro-α-D-mannopyranosyl-(1→1)-2-deoxy-2-fluoro-α-D-mannopyranoside] | 24 | 98 | 66 | 
OCC1O[C@H](O[C@@H]2OC(CO)[C@@H](O)C(O)C2F)C(F)C(O)[C@@H]1O (stereo partly drawn) [Compound 14, 2′-Deoxy-2′-fluoro-α-D-mannopyranosyl-(1→1)-2-deoxy-2-fluoro-β-D-mannopyranoside] | 35 | 82 | 7 | 
O=P(O)(O)OCC1O[C@H](O[C@H]2OC(CO)[C@@H](O)C(O)C2O)C(O)C(O)[C@@H]1O (stereo partly shown) [Compound 15, Trehalose-6-phosphate] | 4 | 28 | 6 | 
COP(=O)(O)OCC1O[C@H](O[C@H]2OC(CO)[C@@H](O)C(O)C2O)C(O)C(O)[C@@H]1O (stereo partly drawn) [Compound 16, 6-O-monomethoxyphosphoryl-D-trehalose] | 24 | 113 | 37 | 
O=P1(O)OCC2O[C@H](O[C@H]3OC(CO)[C@@H](O)C(O)C3O)C(O)C(O)[C@@H]2O1 (stereo partly drawn) [Compound 17, 4,6-(monohydrogen)phosphoryl-D-trehalose] | 17 | 94 | 18 | 
[N-]=[N+]=NCC1O[C@H](O[C@H]2OC(CO)[C@@H](O)C(O)C2O)C(O)C(O)[C@@H]1O (stereo partly drawn) [Compound 18, 6-Azido-D-trehalose] | 13 | 64 | 37 | 
OCC1O[C@H](O[C@H]2OC(CBr)[C@@H](O)C(O)C2O)C(O)C(O)[C@@H]1O (stereo partly drawn) [Compound 19, 6-deoxy-6-bromo-α-D-glucopyranosyl-α-D-glucopyranoside] | 92 | 99 | 102 | 
OCC1O[C@H](O[C@H]2OC(CF)[C@@H](O)C(O)C2O)C(O)C(O)[C@@H]1O (stereo partly drawn) [Compound 20, 6-deoxy-6-fluoro-α-D-glucopyranosyl-α-D-glucopyranoside] | 412 | 91 | 149 | 
OC[C@H]1O[C@H](O[C@H]2O[C@H](CO)[C@H](F)[C@H](O)[C@H]2O)[C@H](O)[C@@H](O)[C@@H]1O [Compound 21, 4-deoxy-4-fluoro-α-D-galactopyranosyl α-D-glucopyranoside] | 412 | 91 | 229 | 
